Test results: BindingDB's records for doi:10.1016/j.bmc.2010.08.049 (University of Wisconsin-Milwaukee, 2010)

Legend:
[1] = target: GABA A receptor alpha-4/beta-3/gamma-2 (Homo sapiens, UniProt P48169+P18507+P28472); assay: Displacement of [3H]flunitrazepam from human recombinant GABAA alpha-4-beta-3-gamma-2 receptor expressed in HEK cells by liquid scintillation counting
[2] = target: T1, GABA-A receptor; alpha-5/beta-3/gamma-2 (Homo sapiens, UniProt P31644+P18507+P28472); assay: Displacement of [3H]flunitrazepam from human recombinant GABAA alpha-5-beta-3-gamma-2 receptor expressed in HEK cells by liquid scintillation counting
T1 sequence (P31644 whole entry): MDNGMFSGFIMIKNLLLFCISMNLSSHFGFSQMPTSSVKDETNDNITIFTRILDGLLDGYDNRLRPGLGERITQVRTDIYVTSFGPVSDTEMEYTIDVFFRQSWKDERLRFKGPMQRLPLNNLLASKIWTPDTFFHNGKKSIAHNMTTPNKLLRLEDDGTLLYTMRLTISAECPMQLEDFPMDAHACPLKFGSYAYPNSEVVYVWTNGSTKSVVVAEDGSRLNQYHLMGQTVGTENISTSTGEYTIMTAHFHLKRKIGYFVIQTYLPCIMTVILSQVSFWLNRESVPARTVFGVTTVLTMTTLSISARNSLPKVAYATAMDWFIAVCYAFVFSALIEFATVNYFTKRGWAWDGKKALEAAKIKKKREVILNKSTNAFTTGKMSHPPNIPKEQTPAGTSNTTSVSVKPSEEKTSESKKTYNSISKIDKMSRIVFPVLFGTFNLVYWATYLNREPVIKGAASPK
T1 sequence (P18507 whole entry): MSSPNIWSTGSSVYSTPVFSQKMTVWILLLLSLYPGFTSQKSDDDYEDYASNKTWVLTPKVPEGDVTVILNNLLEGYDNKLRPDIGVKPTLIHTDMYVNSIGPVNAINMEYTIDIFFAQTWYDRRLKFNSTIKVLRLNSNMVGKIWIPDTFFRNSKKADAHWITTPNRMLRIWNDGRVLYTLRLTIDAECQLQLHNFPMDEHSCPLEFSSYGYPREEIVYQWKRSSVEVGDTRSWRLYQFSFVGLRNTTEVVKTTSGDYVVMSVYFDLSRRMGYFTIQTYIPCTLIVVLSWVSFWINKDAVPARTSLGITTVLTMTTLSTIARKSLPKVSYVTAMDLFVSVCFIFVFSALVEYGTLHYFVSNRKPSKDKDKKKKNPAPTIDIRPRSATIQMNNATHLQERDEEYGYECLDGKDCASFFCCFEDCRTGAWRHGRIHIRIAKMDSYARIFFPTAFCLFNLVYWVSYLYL
T1 sequence (P28472 whole entry): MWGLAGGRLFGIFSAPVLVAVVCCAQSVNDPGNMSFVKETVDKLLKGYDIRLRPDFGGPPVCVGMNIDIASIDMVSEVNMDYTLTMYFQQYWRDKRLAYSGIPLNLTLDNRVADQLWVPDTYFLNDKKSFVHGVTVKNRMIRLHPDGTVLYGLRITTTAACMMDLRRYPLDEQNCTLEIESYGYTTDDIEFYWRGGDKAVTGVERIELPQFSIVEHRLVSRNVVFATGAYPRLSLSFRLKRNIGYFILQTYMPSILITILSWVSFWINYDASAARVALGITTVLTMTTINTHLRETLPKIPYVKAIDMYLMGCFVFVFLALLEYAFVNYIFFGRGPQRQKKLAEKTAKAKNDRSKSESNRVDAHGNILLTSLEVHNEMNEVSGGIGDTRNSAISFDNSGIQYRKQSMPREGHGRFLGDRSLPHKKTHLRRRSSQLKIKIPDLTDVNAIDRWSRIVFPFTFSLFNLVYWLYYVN

[3] = target: Gamma-aminobutyric acid receptor subunit alpha-6/beta-3/gamma-2 (Homo sapiens, UniProt Q16445+P18507+P28472); assay: Displacement of [3H]flunitrazepam from human recombinant GABAA alpha-6-beta-3-gamma-2 receptor expressed in HEK cells by liquid scintillation counting
Gamma-aminobutyric acid receptor subunit alpha-6/beta-3/gamma-2, sequence (Q16445 whole entry, one chain of several): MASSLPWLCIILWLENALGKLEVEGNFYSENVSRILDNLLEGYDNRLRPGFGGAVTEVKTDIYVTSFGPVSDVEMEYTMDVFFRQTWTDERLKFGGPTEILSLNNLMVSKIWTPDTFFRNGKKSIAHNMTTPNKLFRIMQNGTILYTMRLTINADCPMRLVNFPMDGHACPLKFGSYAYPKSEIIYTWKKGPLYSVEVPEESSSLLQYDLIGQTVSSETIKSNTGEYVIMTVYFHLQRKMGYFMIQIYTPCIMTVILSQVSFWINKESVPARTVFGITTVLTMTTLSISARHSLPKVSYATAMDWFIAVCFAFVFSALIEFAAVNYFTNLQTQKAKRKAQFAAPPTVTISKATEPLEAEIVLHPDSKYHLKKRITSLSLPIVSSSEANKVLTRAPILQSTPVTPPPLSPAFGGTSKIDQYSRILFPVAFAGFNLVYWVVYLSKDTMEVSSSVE

[4] = target: T2, GABA-A receptor; alpha-2/beta-3/gamma-2 (Homo sapiens, UniProt P47869+P18507+P28472); assay: Displacement of [3H]flunitrazepam from human recombinant GABAA alpha-2-beta-3-gamma-2 receptor expressed in HEK cells by liquid scintillation counting
T2 sequence (P47869 whole entry): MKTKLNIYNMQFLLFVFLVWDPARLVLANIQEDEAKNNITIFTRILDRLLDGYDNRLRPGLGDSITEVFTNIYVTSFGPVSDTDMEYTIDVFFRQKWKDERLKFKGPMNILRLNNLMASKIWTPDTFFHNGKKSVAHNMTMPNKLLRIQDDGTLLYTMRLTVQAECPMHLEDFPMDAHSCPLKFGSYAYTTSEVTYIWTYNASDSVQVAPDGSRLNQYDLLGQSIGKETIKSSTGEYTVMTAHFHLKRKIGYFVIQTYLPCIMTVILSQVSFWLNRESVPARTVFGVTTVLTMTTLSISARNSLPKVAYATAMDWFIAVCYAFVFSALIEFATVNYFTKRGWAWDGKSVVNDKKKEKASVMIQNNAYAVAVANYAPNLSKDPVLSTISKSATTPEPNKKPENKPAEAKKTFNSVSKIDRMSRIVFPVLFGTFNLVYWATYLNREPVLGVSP
T2 sequence (P18507 whole entry): T1 sequence (P18507 whole entry)
T2 sequence (P28472 whole entry): T1 sequence (P28472 whole entry)

[5] = target: T3, Gamma-aminobutyric acid receptor subunit alpha-3/beta-3/gamma-2 (Homo sapiens, UniProt P34903+P18507+P28472); assay: Displacement of [3H]flunitrazepam from human recombinant GABAA alpha-3-beta-3-gamma-2 receptor expressed in HEK cells by liquid scintillation counting
T3 sequence (P34903 whole entry): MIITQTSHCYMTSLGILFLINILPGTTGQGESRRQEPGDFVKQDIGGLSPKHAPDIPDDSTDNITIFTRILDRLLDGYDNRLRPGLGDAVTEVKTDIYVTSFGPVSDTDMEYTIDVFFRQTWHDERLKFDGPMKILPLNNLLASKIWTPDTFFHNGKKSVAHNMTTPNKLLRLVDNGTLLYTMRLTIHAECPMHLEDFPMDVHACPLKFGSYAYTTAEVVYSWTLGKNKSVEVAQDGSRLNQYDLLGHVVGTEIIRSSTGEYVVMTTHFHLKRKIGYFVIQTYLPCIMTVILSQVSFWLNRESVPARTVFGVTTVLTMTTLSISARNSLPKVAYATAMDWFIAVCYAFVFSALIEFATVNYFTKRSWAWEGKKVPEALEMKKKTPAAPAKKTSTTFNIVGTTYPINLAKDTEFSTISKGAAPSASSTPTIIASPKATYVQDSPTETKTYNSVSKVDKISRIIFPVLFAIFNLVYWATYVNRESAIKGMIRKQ
T3 sequence (P18507 whole entry): T1 sequence (P18507 whole entry)
T3 sequence (P28472 whole entry): T1 sequence (P28472 whole entry)

[6] = target: T4, Gamma-aminobutyric acid receptor subunit alpha-1/beta-3/gamma-2 (Homo sapiens, UniProt P14867+P18507+P28472); assay: Displacement of [3H]flunitrazepam from human recombinant GABAA alpha-1-beta-3-gamma-2 receptor expressed in HEK cells by liquid scintillation counting
T4 sequence (P14867 whole entry): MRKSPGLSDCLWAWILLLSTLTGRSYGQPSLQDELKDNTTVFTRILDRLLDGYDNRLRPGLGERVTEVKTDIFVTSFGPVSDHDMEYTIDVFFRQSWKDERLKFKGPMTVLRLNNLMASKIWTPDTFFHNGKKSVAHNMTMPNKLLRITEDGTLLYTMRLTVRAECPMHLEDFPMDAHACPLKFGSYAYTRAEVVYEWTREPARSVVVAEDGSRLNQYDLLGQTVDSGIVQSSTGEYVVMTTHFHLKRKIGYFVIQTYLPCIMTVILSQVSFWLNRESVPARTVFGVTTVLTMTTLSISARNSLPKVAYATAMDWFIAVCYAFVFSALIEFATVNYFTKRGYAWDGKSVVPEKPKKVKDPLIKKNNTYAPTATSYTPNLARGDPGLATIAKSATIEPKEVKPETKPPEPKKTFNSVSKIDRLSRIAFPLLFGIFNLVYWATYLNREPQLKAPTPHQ
T4 sequence (P18507 whole entry): T1 sequence (P18507 whole entry)
T4 sequence (P28472 whole entry): T1 sequence (P28472 whole entry)

GABA A receptor alpha-4/beta-3/gamma-2, sequence (P48169 whole entry, one chain of several): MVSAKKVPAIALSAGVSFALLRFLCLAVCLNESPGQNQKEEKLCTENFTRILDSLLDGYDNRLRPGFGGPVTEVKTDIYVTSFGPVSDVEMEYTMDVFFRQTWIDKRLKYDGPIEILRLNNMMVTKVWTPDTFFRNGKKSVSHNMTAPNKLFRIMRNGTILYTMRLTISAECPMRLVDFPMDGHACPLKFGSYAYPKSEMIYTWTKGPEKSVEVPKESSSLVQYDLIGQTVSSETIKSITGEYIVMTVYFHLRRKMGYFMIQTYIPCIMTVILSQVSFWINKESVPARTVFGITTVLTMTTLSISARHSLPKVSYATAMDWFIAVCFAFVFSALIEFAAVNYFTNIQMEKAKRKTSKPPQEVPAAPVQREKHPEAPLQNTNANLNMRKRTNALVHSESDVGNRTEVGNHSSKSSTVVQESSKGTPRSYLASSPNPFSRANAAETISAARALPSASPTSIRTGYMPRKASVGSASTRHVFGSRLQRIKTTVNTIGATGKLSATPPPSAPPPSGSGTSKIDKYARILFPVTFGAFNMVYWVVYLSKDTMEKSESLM

| SMILES | Ki [1] [nM] | Ki [2] [nM] | Ki [3] [nM] | Ki [4] [nM] | Ki [5] [nM] | Ki [6] [nM] |
| --- | --- | --- | --- | --- | --- | --- |
| C#Cc1ccc2c(c1)c1cc(C(=O)OC(C)(C)C)ncc1n2C(=O)OC(C)(C)C [di-tert-butyl 6-ethynyl-9H-pyrido[3,4-b]indole-3,9-dicarboxylate] | – | 5000 | 5000 | – | – | – |
| c1ccc(COc2cc3c4ccccc4nc-3c[nH]2)cc1 | – | 10000 | 10000 | 3000 | 3000 | – |
| CCC(OC(=O)c1cc2c(cn1)[nH]c1ccccc12)C(F)(F)F (stereo unspecified) [1,1,1-trifluorobutan-2-yl 9H-pyrido[3,4-b]indole-3-carboxylate] | – | 1000 | – | 1000 | 1000 | 1000 |

Continued, in another order:

| Ki [1] [nM] | Ki [2] [nM] | Ki [3] [nM] | SMILES | Ki [4] [nM] | Ki [5] [nM] | Ki [6] [nM] |
| --- | --- | --- | --- | --- | --- | --- |
| 1000 | 1000 | 3000 | CC(OC(=O)c1cc2c(cn1)[nH]c1ccccc12)c1ccccc1 (stereo unspecified) [1-phenylethyl 9H-pyrido[3,4-b]indole-3-carboxylate] | 1000 | 1000 | – |
| 5000 | 5000 | 5000 | CC(C)(C)OC(=O)c1cc2c(cn1)[nH]c1ccc(C#CC#Cc3ccc4[nH]c5cnc(C(=O)OC(C)(C)C)cc5c4c3)cc12 [1,4-Bis(9H-beta-carboline-3-carboxylic acid tert-butyl ester)buta-1,3-diyne] | – | – | – |
| – | 10000 | 10000 | CC/C=C/C=C/Oc1cc2c(cn1)[nH]c1ccccc12 [3-(hexa-1,3-dienyloxy)-9H-pyrido[3,4-b]indole] | – | – | – |
| 3000 | 2000 | 5000 | CC(OC(=O)c1cc2c(cn1)[nH]c1ccccc12)C(Cl)(Cl)Cl (stereo unspecified) [1,1,1-trichloropropan-2-yl 9H-pyrido[3,4-b]indole-3-carboxylate] | 2000 | 2000 | 2000 |
